According to publication PMC5908160, “Inhibition of sperm motility in male macaques with EP055, a potential non-hormonal male contraceptive” (PLoS ONE, 2018):
Where two headings read alike, the source gives them in different places.

What was measured:
human sperm = assay: CASA (Computer Assisted Sperm Analysis) assay of human sperm motility; type: cell-based; conditions: n = 4 donors, read-out: average relative motility index (RMI) IC50
Procedure: Human semen samples were obtained from the Department of Obstetrics and Gynecology, University of North Carolina Memorial Hospital, Chapel Hill, NC. […] Semen samples were allowed to liquefy for 30 minutes and subjected to standard semen analysis to determine acceptability before freezing. All samples were stored in liquid nitrogen, and de-identified by the Department of Obstetrics and Gynecology, University of North Carolina Memorial Hospital, Chapel Hill, NC before further processing. A density gradient (Isolate catalog number 99264, Irving Scientific, Irving CA, or SpermCare catalog number 2221 and 2222, InvitroCare Inc., Frederick MD) was used to prepare spermatozoa for further analysis. At least 3 independent experiments were done per assay, each using a single donor.
Computer Assisted Sperm Analysis (CASA) was conducted as previously described. Briefly sperm were washed after the density gradient with EP buffer-0.4% BSA and resuspended in modified M16 for compound treatments. Sperm were diluted to 5 x 10^6/mL in 12x75 mm glass tubes with the appropriate treatment and incubated at 37°C in 5% CO2. […] The relative mobility index (RMI) is a measure of the effect of compound on sperm and is calculated as the VSL x %normal motility and normalized to the appropriate DMSO control.

[1] = EP055 testis, epididymis and plasma levels in cynomolgus males after i.v. infusion; type: in vivo, Macaca fascicularis; conditions: 63.25 mg/kg i.v.
From the text: Evaluation of the effects of an i.v. infusion of EP055 on male cynomolgus macaque reproductive system was done by Sinclair Research Center, LLC. (Study No: S14574). This study was reviewed and approved by the Sinclair IUCAC committee and complied with all applicable sections of USDA Policy 12 and the Final Rules of the Animal Welfare Act regulation (9 CFR). This study used 6 naïve cynomolgus males (3-4 yrs old, 4 kg or less). Doses of EP055 in 5% DMSO-PBS, pH 7.6 or vehicle control were infused by i.v. at 63.25 mg/kg. The infusion rate was 4 ml/min. Plasma and tissues (epididymis and testis) were collected at 2 hr or 6 hr and immediately frozen on dry ice. Samples were stored at -80 °C until processing. Half-life was approximated using the 2 hr and 6 hr points and an estimation of the initial plasma level using the initial dose of […], the circulating blood volume of 65 ml/kg, average hematocrit of 41.7 (S2 Table) and average animal size (3.72 kg for n=4).
(§1) Semen or tissue samples were thawed at room temperature. PBS at pH 7.6 was added to each sample at a ratio of 2:1 and sonicated in an ice chilled bath for 5 minutes before homogenization using a Polytron unit (Kinematica AG, Lucerne, Switzerland). An aliquot (25 uL) of each sample homogenate was processed as described for plasma samples.

[2] = EP055 plasma and semen levels in rhesus males after i.v. infusion; type: in vivo, Macaca mulatta
From the text: Semen was collected by direct penile stimulation with a P-T Electronics Model 303 PTE 110 Volt AC stimulator equipped with electrocardiogram pad electrodes (10–35 V, 20 ms duration, 18 pulses/sec) as previously described. Semen was collected weekly for 3 weeks to establish baseline parameters for each male. Samples were inspected visually to determine sperm motility and suitability for the study. Sperm motility data from male 28106 presented in S1 Table is representative of pre-treatment samples. Immediately after collection, the seminal plug was separated from the liquefied fraction, placed into a cryovial, flash frozen in liquid nitrogen, and stored at -80C until evaluation for drug levels. Spermatozoa were prepared by centrifugation (7 min, 200 g) of the liquid portion of the ejaculate and resuspending the sperm pellet in TALP-HEPES medium containing 0.3% bovine serum albumin at 37°C. An aliquot was taken to determine concentration using a hemocytometer, percent motility and forward progression as previously described. Baseline semen samples were collected from each male twice during the week prior to treatment. Semen was collected from each male 6–8 hr, 28–30 hr, and 78 hr post-infusion of low dose EP055 (75–80 mg/kg body weight) intravenously. After a one-week recovery period, a baseline semen sample was obtained, and the following week semen samples were collected as described above after an intravenous infusion of high dose EP055 (125–130 mg/kg).
Sample preparation and LC-MS/MS analysis were done by OpAns LLC (Durham, NC). Plasma samples (both rat and macaque) were thawed at room temperature and processed by adding 160 µL of methanol (including 10 µL internal standard) to 25 µL of the sample. Samples were vortexed for 5 minutes, centrifuged at 2684 x g for 5 minutes. 50 µL of supernatant was removed for analysis by HPLC-MS/MS.
as §1
Prior to infusion of EP055, each male was sedated with ketamine by the surgical staff at ONPRC and transported to the operating room. After positioning in dorsal recumbency, the male was intubated and placed under inhalant (isoflurane) anesthesia. Bilateral intravenous catheters were placed in cephalic veins, one for infusion and one for back-up. A percutaneous arterial line was placed in the right femoral artery for direct blood pressure measurement. Invasive blood pressure, heart rate, SpO2, and respirations were monitored by the surgical staff throughout the procedure. Initially, the low doses of EP055 in 5% DMSO-PBS 7.6 was infused by i.v. at 75-80 mg/kg, using a Medfusion 3500 pump (Smiths Medical, St. Paul, MN), and was started at a low flow rate ([…]). In 3 of 4 males, a 5-10% increase in blood pressure and heart rate were noted within the first 2-3 minutes of infusion of EP055. In these cases, the infusion was temporarily suspended until these parameters subsequently declined to normal. The infusion rate was then doubled to 1.2 ml/kg/min after 5-10 minutes and the final volume of EP055 infusate was administered. Blood pressure and heart rate remained normal throughout the rest of the infusion interval. The total volume of EP055 infusate ranged from 72 ml – 136 ml, depending upon the weight of the animal, and the duration of infusion was 10-13 minutes. Following completion of the infusion, all animals recovered normally. Animals were monitored by clinical veterinary staff immediately, at 1 hr, 2 hr and 6-8 hr post-infusion, and daily for up to 30 days after the final infusion of EP055. […]

COC(=O)NNc1nc(Nc2ccc(NC(C)=O)c(O)c2)nc(SCC(=O)O)n1 [EP055]
IC50 (human sperm): 200 µM
epididymis versus testis level (ug/mg of tissue) ([1]; 2 and 6 hours): significantly (p < 0.05) more EP055 (ug/mg of tissue) in the epididymis after 2 hours but not after 6 hours
total amounts in testis versus epididymis ([1]; 2 and 6 hours): not significantly different at 2 and 6 hours
presence in testis and epididymis ([1]; 2 and 6 hours post-infusion): detected in testis and epididymis two hours and six hours post-infusion
half-life ([1]; cynomolgus monkey, iv, extrapolated from 2 hr and 6 hr points and calculated initial plasma concentration, read-out: estimated plasma half-life (t1/2) in target tissue experiment): 11.9 min
concentration ([2]; high dose 125–130 mg/kg, 6–8 hr, read-out: Plasma levels): 0.97 ± 0.66 µM
concentration ([2]; high dose 125–130 mg/kg, 6–8 hr, read-out: Semen Levels): 539 µM
concentration ([2]; high dose 125–130 mg/kg, 13–17 days, read-out: Semen Levels): 0.9 ± 0.9 µM
concentration ([2]; low dose 75–80 mg/kg, 14–18 days, read-out: Semen Levels): 0.4 ± 0.3 µM
concentration at 30 h ([2]; rhesus monkey, plasma, iv, high dose 125–130 mg/kg, read-out: Plasma levels): 0.02 ± 0.01 µM
concentration at 6 h ([2]; rhesus monkey, plasma, iv, low dose 75–80 mg/kg, 6 hr after infusion, mean ± SEM 4 animals, read-out: Plasma levels): 0.62 ± 0.3 µM
concentration at 30 h ([2]; rhesus monkey, plasma, iv, low dose 75–80 mg/kg, read-out: Plasma levels): 0.01 µM
concentration at 30 h ([2]; rhesus monkey, semen, iv, high dose 125–130 mg/kg, read-out: Semen Levels): 376 µM
concentration at 78 h ([2]; rhesus monkey, semen, iv, high dose 125–130 mg/kg): 101 ± 30 µM
concentration at 6 h ([2]; rhesus monkey, semen, iv, low dose 75–80 mg/kg, 6 hr, read-out: Semen Levels): 293 µM
concentration at 30 h ([2]; rhesus monkey, semen, iv, low dose 75–80 mg/kg, read-out: Semen Levels): 128 ± 46 µM
concentration at 78 h ([2]; rhesus monkey, semen, iv, low dose 75–80 mg/kg): 61 ± 22 µM
Kp ([2]; rhesus monkey, semen/plasma, iv, high dose 125–130 mg/kg, 6–8 hr, read-out: Ratio of S/P): 556
Kp at 6 h ([2]; rhesus monkey, semen/plasma, iv, low dose 75–80 mg/kg, 6 hr, read-out: Ratio of S/P): 473
concentration ([2]; rhesus, 6 and 30 hours after high-dose infusion, read-out: semen levels): > 300 µM
detection in plasma ([2]; rhesus, 6–8 hours post-infusion): detected
detection in plasma ([2]; rhesus, 28–30 hours post-infusion): barely detectable
time semen levels detectable post-infusion ([2]; rhesus, low and high dose): up to 78 hours
